Reference: patent US20260232726A1, “USE OF BORON FOR THE TREATMENT OF LEISHMANIASIS DISEASE OF NEURONAL ORIGIN” (YEDITEPE UNIVERSITESI, priority 2023, published 2026)
Read-outs that look alike come from different tables or passages of the source.

Key:
[1] = tested on: GSH level in astrocytes infected with Leishmania; assay: Oxidative stress by measurement of glutathione (GSH) level in infected astrocytes (DTNB); type: cell-based, murine; conditions: 50, 100, 150 and 200 μM SPT; 24 hours
Method: 6. Determining the Oxidative Stress by Measurement of Glutathione (GSH) Level in Astrocytes Infected with Leishmania
To determine the GSH level of infected astrocytes, cell lysate (50 ul) is suspended in DTNB (Ellman's reagent—5,5′-Dithiobis(2-nitrobenzoic acid)) (10 uL). Then, EDTA buffer solution (pH 8.2) is added to this mixture in a 96-well plate. After incubation in the dark at 37° C. for 30 minutes, absorbance is measured colorimetrically at a wavelength of 412 nm using a UV spectrophotometer (Thermo Scientific, Finland). The results are expressed as μmol/g protein.

[2] = tested on: healthy C8-S astrocyte cells; assay: Cell viability of healthy astrocytes treated with SPT (MTS method); type: cell-based, murine
Method: (§1) Astrocyte C8-S murine cell line (ATCC) is grown as monolayer in RPMI 1640 nutrient medium (2 mM L-glutamine, 100 U/ml penicillin, 100 μg/ml streptomycin) with 10% FBS, heat inactivated in a humidified atmosphere environment with 5% C02 at 37° C. Cells are passaged at 3-day intervals.
3. Treating Astrocytes with SPT and Determining Cell Viability
Cells were seeded in 96-well culture dishes (Coming Glasswork, Coming, NY) in Dulbecco's modified Eagle's medium (DMEM) containing 10% fetal bovine serum (lnvitrogen) and 1% PSA (Biological Industries, Beit Haemek, Israel) at 8.000 cells/well and then treated with SPT, and cell viability levels were measured on days 1, 2 and 3. Cell viability is measured by using 3-(4,5-di-methyl-thiazol-2-yl)-5-(3-carboxy-methoxy-phenyl)-2-(4-sulfo-phenyl)-2H-tetrazolium (MTS)-method (CellTiter96 AqueousOne Solution; Promega, Southampton, UK). 10 μl MTS solution is added onto the cells in 100 μl growth medium and they are incubated in the dark for 2 hours. After the incubation period, viability analysis is obtained by performing absorbance measurement with an ELISA plate reader (Biotek, Winooski, VT) at 490 nm wavelength.

[3] = tested on: C8-S astrocyte cells infected with L. infantum parasites; assay: Infection rate of astrocytes infected with parasites after SPT treatment (flow cytometer); type: cell-based, Leishmania infantum
Method: Leishmania infimtum (MHOM/MA/67/TTMA-P263) promastigotes are incubated in RPMI medium (heat inactivated 1 0/4) fetal bovine serum, 2 mM L-glutamine, 20 mM HEPES, 100 U/ml penicillin, 100 μg/ml streptomycin) at 27° C. Parasites reaching the logarithmic phase (10^6/ml) are made infective.
as §1
C8-S astrocytes and L. infantum promastigotes were stained with PKH26 (Red Fluorescent Cell Linker Kit, Sigma-Aldrich) and PKH67 (Green Fluorescent Cell Linker Kit, Sigma-Aldrich), respectively, according to the procedure described previously in the article by Islek et al. (2021). A total cell concentration of 10^7 cells/ml was used. Before infection, the staining rate of parasites and cells was determined by flow cytometry.
5. Treating the Infected Astrocytes with SPT
The effect of SPT on the proliferation of astrocyte cells infected with parasites is analyzed. In summary, astrocytes are infected with parasites at 37° cat a ratio of 10:1 (parasite: astrocyte). After 3 and a half hours, infected astrocytes are washed with medium to remove the remaining parasites. Infected astrocytes are left to incubate with SPT at different concentration ranges for 3 days at 37° C., fixed at the end of 3 days and the infection rate is determined by flow cytometer. The percentage of infection is determined according to the following formula: […]

leishmaniasis = conditions: cited from earlier work
[4] = SPT 50-400 μM, 24, 48 and 72 hours

O.O.O.O.[Na+].[O-]B1OO1 [SPT, sodium perborate tetrahydrate]
GSH levels in infected astrocytes compared to the negative control [1]: significantly inducing GSH levels | astrocyte cell viability compared to the negative control group ([2]; 100 μM SPT, after 72 hours): 100% | cell viability of healthy C8-S astrocytes ([2]; 200 μM SPT, 24, 48 and 72 hours): above 100% | toxic effect on healthy cells [2, 4]: showed no toxic effect on healthy cells | infection rate of infected astrocytes ([3]; 75 μM SPT, 24 hours, negative control approximately 23%): 20±3.33% | infection rate of infected astrocytes ([3]; 75 μM SPT, 72 hours, negative control 13%): approximately 4% | infection rate of infected astrocytes ([3]; 100 μM SPT, 24 hours, negative control approximately 23%): 17±2.86% | infection rate of infected astrocytes ([3]; 150 μM SPT, 24 hours, negative control approximately 23%): 11.89±3.56% | infection rate of infected astrocytes ([3]; 200 μM SPT, 24 hours, negative control approximately 23%): 7.97±1.51% | infection rate of infected astrocytes ([3]; 400 μM SPT, 24 hours, negative control approximately 23%): 12.63±1.78% | infection rate of infected astrocytes ([3]; 100, 150, 200, and 400 μM SPT, 72 hours, negative control 13%): ~7% | cell viability on astrocytes infected with Leishmania infantum promastigotes [3, 4]: statistically decreased cell viability | effect on cells infected with L. infantum parasites ([3]; SPT 75-200 μM): significant reduction

C[C@@H]1[C@H](O)[C@@H](C)/C=C/C=C/C=C/C=C/C=C/C=C/C=C/[C@H](O[C@@H]2O[C@H](C)[C@@H](O)[C@H](N)[C@@H]2O)C[C@@H]2O[C@](O)(C[C@@H](O)C[C@@H](O)[C@H](O)CC[C@@H](O)C[C@@H](O)CC(=O)O[C@H]1C)C[C@H](O)[C@H]2C(=O)O [Amphotericin B]
cure (leishmaniasis; 6-month therapy): 97% | cure rate (leishmaniasis; cases where antimonial resistance is observed): ~100%

CCCCCCCCCCCCCCCCOP(=O)([O-])OCC[N+](C)(C)C [Miltefosine]
cure (leishmaniasis; miltefosine data compared with 6-month Amphotericin B therapy): 94% | cure (leishmaniasis; oral, 3-4-week treatment): 95-100%
